Results on five compounds are retold here after patent US20020052343A1, “Salicylamides as serine protease inhibitors” (priority 1999, published 2002).

In experiment [1] the target is T1, human Urokinase (Homo sapiens, UniProt P00749).
T1 construct: purchased American Diagnostica, Conn., USA
Put plainly: Urokinase (uPA) inhibition, chromogenic substrate hydrolysis, Ki app. The experiment is classed as biochemical. Here is the method: The effectiveness of compounds of the present invention as inhibitors of Urokinase and Factor Xa is determined by using synthetic substrates and purified Urokinase and purified human Factor Xa respectively.
The rates of hydrolysis by the chromogenic substrates were measured both in the absence and presence of compounds of the present invention. […] The results of this assay are expressed as the inhibitory constant, Ki app. Factor Xa determinations were made in 50 mM Tris buffer, pH 7.5, containing 1 M NaCl, 5 mM CaCl2, 0.05% Tween-20, and 1.5 mM EDTA. […] Initial velocity measurements calculated from the progress curves by a kinetic analysis program (Batch Ki; Peter Kuzmic, BioKin, Ltd., Madison, Wis.) were used to determine Ki app.
Urokinase inhibition determinations were made in 50 mM Tris (pH 7.5), 150 mM NaCl, 0.05% Tween-20, 0.002% antifoam, and 1 mM EDTA. human Urokinase (from American Diagnostica, Conn., USA). […] Initial velocity measurements calculated from the progress curves by a kinetic analysis program (Batch Ki; Peter Kuzmic, BioKin, Ltd., Madison, Wis.) were used to determine Ki app.

The target in experiment [2] is T2, human Factor Xa (Homo sapiens, UniProt P00742).
T2 construct: purchased Haematologic Technologies, Vt., USA
Briefly: Factor Xa inhibition, chromogenic substrate hydrolysis, Ki app. In kind it is biochemical. The conditions noted are these: 2-3 nM human Factor Xa, substrate 1 mM, 50 mM Tris pH 7.5, absorbance at 405 nm, read-out: FXa Ki. Here is the method: Some of the compounds of the present invention show selectivity between uPA and FXa, with respect to their inhibitory properties. The effectiveness of compounds of the present invention as inhibitors of Urokinase and Factor Xa is determined by using synthetic substrates and purified Urokinase and purified human Factor Xa respectively.
The rates of hydrolysis by the chromogenic substrates were measured both in the absence and presence of compounds of the present invention. Hydrolysis of the substrates result in the release of a chromogenic moiety, which is monitored spectrophotometrically by measuring the increase in absorbance at 405 nano meter (nm). A decrease in the rate of absorbance change at 405 nm in the presence of a inhibitor is indicative of enzyme inhibition. The results of this assay are expressed as the inhibitory constant, Ki app. Factor Xa determinations were made in 50 mM Tris buffer, pH 7.5, containing 1 M NaCl, 5 mM CaCl2, 0.05% Tween-20, and 1.5 mM EDTA. Values of Ki app. were determined by allowing 2-3 nM human Factor Xa (Haematologic Technologies, Vt., USA) to react with the substrate (1 mM) in the presence of an inhibitor. Hydrolysis of the chromogenic substrate is followed spectrophotometrically at 405 nm for five minutes. The enzyme assay routinely yielded linear progression curves under these conditions. Initial velocity measurements calculated from the progress curves by a kinetic analysis program (Batch Ki; Peter Kuzmic, BioKin, Ltd., Madison, Wis.) were used to determine Ki app.

T2 sequence (P00742 235-488 limits assumed): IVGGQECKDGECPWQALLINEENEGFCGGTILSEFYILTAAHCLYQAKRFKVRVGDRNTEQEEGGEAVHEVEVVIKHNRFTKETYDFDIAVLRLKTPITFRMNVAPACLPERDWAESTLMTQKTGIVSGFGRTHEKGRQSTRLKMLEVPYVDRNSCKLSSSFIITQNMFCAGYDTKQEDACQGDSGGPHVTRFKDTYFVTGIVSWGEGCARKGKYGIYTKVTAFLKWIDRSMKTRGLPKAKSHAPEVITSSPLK
T2 sequence (P00742 41-179 partner limits assumed): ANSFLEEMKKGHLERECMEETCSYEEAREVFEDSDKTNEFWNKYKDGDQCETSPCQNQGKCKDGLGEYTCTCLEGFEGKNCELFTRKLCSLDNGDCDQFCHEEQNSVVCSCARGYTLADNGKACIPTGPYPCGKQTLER

Consider `Cc1cc(I)c(O)c(C(=O)Nc2ccc(NC(=N)N)nc2)c1` [Ex. 205], for which the Ki was 5500 nM in experiment [1] and 290000 nM in experiment [2].

Take `CC(C)c1cc(C(=O)Nc2ccc(C(=N)N)cc2)c(O)c(C(C)C)c1` [compound 24]: the Ki in experiment [1] was 2900 nM; in experiment [2], 34000 nM.

On to `Cc1cc(Br)c(O)c(C(=O)Nc2ccc(C(=N)N)cc2)c1` [Ex. 5], for which the Ki worked out at 290 nM in experiment [1] and 840 nM in experiment [2]. Turning to `Cc1cc(I)c(O)c(C(=O)Nc2ccc(C(=N)N)cc2)c1` [Ex. 1, N-(4—Carbamimidoyl-phenyl)-2-hydroxy-3-iodo-5-methyl-benzamide], the Ki in experiment [2] turned out to be 880 nM.

Take `N=C(N)Nc1ccc(NC(=O)c2cc3ccccc3cc2O)cn1` [Ex. 201, 3-hydroxy-naphthalene-2-carboxylic acid (6-guanidino-pyridin-3-yl)-amide]: the Ki stood at 326 nM in experiment [1] and 130000 nM in experiment [2].
